Assay results: paper PMC9368227, “Investigation of Radiotracer Metabolic Stability In Vitro with CYP-Overexpressing Hepatoma Cell Lines” (Cells, 2022)

Columns and labels:
HepG2 CYP1A2 [1] = test: Competitive coincubation of [18F]1 with competitors, HepG2 CYP1A2; settings: 1 h; competitor 1 or 10 µM
Description: (§1) Radio thin-layer chromatography (radio-TLC) was carried out on reversed-phase TLC plates (ALUGRAM RP-18W/UV254 from Macherey-Nagel, Düren, Germany) with a mobile phase of 45% ACN in water containing 0.1% trifluoroacetic acid. The samples (2 µL) were spotted onto the TLC plate. The line of origin and the front line were labeled with 1/5 of the sample activity concentration. To track the Rf value of the intact radiotracer, each TLC was spotted with the intact tracer as reference in the middle. Detection of the activity signals was achieved after 10–30 min development on radioluminographic imaging plates (FUJIFILM, Tokyo, Japan) and subsequent readout with Fuji BAS 5000® or Amersham™ Typhoon™ from GE Healthcare (Uppsala, Sweden). The resulting chromatographic profile was analyzed and integrated with the help of AIDA Image Analysis Software (version 5.1). For data depiction, the fraction of each species (intact radiotracer, metabolite, [^18F]fluoride) was plotted.
(§2) Incubations were conducted for up to 2 h in a 96-well plate in KHB with a total incubation volume of 50 µL and an ethanol concentration of 0.4%. For the incubation with radiotracers, an activity of 100–200 kBq/well at the start of the experiment was used.
(§3) Our last interest within this study was to test if the tracer itself could function as an indicator for the conversion of other substrates acting via inhibition of or competition with the CYP enzymes. In this regard, alternative substrates were added to the incubation mixtures with [^18F]1. The investigated substrates covered testosterone, caffeine, progesterone, compound 3, tebufelone, and RWJ63556 [44] (10 µM for all substances). Furthermore, the influence of testosterone on the metabolic turnover of [^18F]1 was investigated over a concentration range of 1–50 µM.
Figure 7 Coincubation of [^18F]1 and different competitors with (A) HepG2 CYP1A2 and (B) HepG2 CYP2C19. […] Each competitor/inhibitor was incubated with [^18F]1 for 1 h followed by radio-TLC analysis. Activity concentrations of 94–197 kBq/well (1.9–3.9 MBq/mL) were used at start of experiment, which correspond to a concentration of 120–125 nM. Statistical analysis performed with Dunnett’s multiple comparison (post hoc test) according to the intact tracer amount (* p < 0.05; *** p < 0.001; **** p < 0.0001; n = 4).

HepG2 CYP2C19 [2] = test: Competitive coincubation of [18F]1 with competitors, HepG2 CYP2C19; settings: 1 h, competitor 10 µM
Description: as §1, §2, §3
Figure 7 Coincubation of [^18F]1 and different competitors with (A) HepG2 CYP1A2 and (B) HepG2 CYP2C19. […] Each competitor/inhibitor was incubated with [^18F]1 for 1 h followed by radio-TLC analysis. […]

HepG2 cells = test: Testosterone control incubation (conversion to androstenedione), LC-MS/MS; settings: 2.5 µM testosterone; within 2 h; 3 × 10^5 cells/well in 96-well plate
Description: Testosterone (SIGMA-ALDRICH, Taufkirchen, Germany) was dissolved in pure ethanol. Control incubations with testosterone were carried out for 2 h with 2.5 µM testosterone, 0.05% ethanol, and a total volume of 150 µL in the cavities of a 96-well plate. The supernatant was prepared and analyzed by UPLC–MS/MS (System 2; 45% isocratic elution). Testosterone was monitored at transitions for [M + H]^+ 289.24 > 97.08 and 289.24 > 109.05 with cone voltage 52 V and collision energy 20 V, while the CYP-mediated metabolite androstenedione was monitored at transitions for [M + H]^+ 287.22 > 97.08 (collision energy 18 V) and 287.22 > 109.05 (collision energy 20 V) with a cone voltage of 50 V each.

HepG2 CYP2C19 [3] = test: Radiotracer metabolic stability, CYP2C19-overexpressing HepG2 cells; assay type: in vitro ADME, human; settings: radio-TLC
Description: (§4) CYP-overexpressing human hepatocellular carcinoma cells (HepG2) were previously generated on the basis of subcloning human CYP1A2 [18], CYP2C19 [20], and CYP3A4 [21] cDNA into a lentiviral expression vector. The cDNA expression in the resulting vector was controlled by the human cytomegalovirus (CMV) promoter. The lentivirus expression vectors were used to produce recombinant lentivirus particles according to standard methods to infect HepG2 cells. Infected cells were selected with 3 µg/mL blasticidin for CYP2C19 and CYP3A4 and 500 µg/mL zeocin for CYP1A2 overexpression 48 h after infection. Within 3–4 weeks, antibiotic-resistant cell colonies were picked to obtain single cell-derived HepG2 clones. For more detailed information on the generation procedure of CYP-overexpressing HepG2 cells, see Steinbrecht et al..
HepG2 cells were cultured in DMEM GlutaMax (Gibco, Paisley, UK) with 10% fetal calf serum (FCS) and with selective antibiotics (penicillin/streptomycin for wildtype, Zeocin (InvivoGen, San Diego, CA, USA) for CYP1A2, and Blasticidin (Gibco, Carlsbad, CA, USA) for CYP2C19 and CYP3A4 cultures). As a negative control, cultures of CHO cultivated in Ham’s F-12 medium (Gibco) with 10% FCS and 2 mM glutamine were added for the radiotracer experiments. Cells were handled under a laminar flow hood (Thermo Scientific^TM Safe 2020, Langenselbold, Germany) and were split once or twice a week by trypsinization. Cell cultures were stored horizontally in a humidified incubator (Heracell240i) at 37 °C and 5% CO2. During the time of experimental work, the utilized cell lines were regularly checked for mycoplasma. Cells were seeded in duplicates into a 96-well plate (CellStar®) with a density of 3 × 10^5 cells/well and cultured until the next day at 37 °C and 5% CO2. Cell density was determined with a cell counter (CASY® Model TT from Schärfe System, Reutlingen, Germany). Before the addition of substrates, cells were washed twice with Krebs–Henseleit buffer (KHB). The HEPES-supplemented Krebs–Henseleit buffer (pH 7.4, KHB) was freshly prepared using HEPES (5.95 g/L), D-glucose (2.0 g/L), magnesium sulfate (0.141 g/L), potassium dihydrogenphosphate (0.16 g/L), potassium chloride (0.35 g/L), sodium chloride (6.9 g/L), calcium chloride dihydrate (0.373 g/L), and sodium bicarbonate (2.1 g/L), followed by adjustment to pH 7.4 with NaOH. The utilized substances within this study were neither found (see Supplementary Materials, Figure S14) nor reported to be cytotoxic within the utilized concentration range and incubation duration.
(§5) Incubations with radiotracer compounds were conducted, on the one hand, with radioactive ^18F-labeled compounds alone (time dependency) and, on the other hand, in the presence of 50 µM nonradioactive reference (carrier addition). For the investigation of a time-dependent metabolite formation, 2 µL aliquots were withdrawn from the supernatant, directly spotted onto the TLC plate, and analyzed as described above. The same procedure was performed for carrier-added samples.
UPLC–MS analyses were performed to verify the degradation behavior of the test compounds and to gain insights into the identity of the formed metabolites. Using radiotracer incubation samples, 40 µL aliquots of the carrier-added incubations were withdrawn followed by addition of 160 µL of ACN and centrifugation (14,000 rpm (18,800–20,800× g), 4 °C, 5 min). Samples were frozen at −20 °C, and activity was allowed to decay before further mass-spectrometric analyses. Additionally, incubations with the nonradioactive references were carried out with 100 nM or 50 µM (according to the carrier-added samples) and analyzed. UPLC–MS/MS was performed using System 2 (55% isocratic elution for quantification of intact compound, or 25–75% gradient for nonradioactive metabolite analysis). The MRM mode was optimized with a solution of respective reference compounds diluted in eluent. […]

HepG2 CYP3A4 = test: Radiotracer metabolic stability, CYP3A4-overexpressing HepG2 cells; assay type: in vitro ADME, human; settings: HepG2 CYP3A4; radio-TLC
Description: as §4
(§6) HepG2 cells were cultured in DMEM GlutaMax (Gibco, Paisley, UK) with 10% fetal calf serum (FCS) and with selective antibiotics (penicillin/streptomycin for wildtype, Zeocin (InvivoGen, San Diego, CA, USA) for CYP1A2, and Blasticidin (Gibco, Carlsbad, CA, USA) for CYP2C19 and CYP3A4 cultures). As a negative control, cultures of CHO cultivated in Ham’s F-12 medium (Gibco) with 10% FCS and 2 mM glutamine were added for the radiotracer experiments. […] Cell density was determined with a cell counter (CASY® Model TT from Schärfe System, Reutlingen, Germany). […]

HepG2 CYP1A2 [4] = test: Radiotracer metabolic stability, CYP1A2-overexpressing HepG2 cells; assay type: in vitro ADME, human; settings: HepG2 CYP1A2, up to 2 h; radio-TLC
Description: as §4
as §6, with “cultures).” for “cultures). As a negative control, cultures of CHO cultivated in Ham’s F-12 medium (Gibco) with 10% FCS and 2 mM glutamine were added for the radiotracer experiments.”
as §5, with “The same procedure was performed for carrier-added samples.” left out
UPLC–MS analyses were performed to verify the degradation behavior of the test compounds and to gain insights into the identity of the formed metabolites. […] Additionally, incubations with the nonradioactive references were carried out with 100 nM or 50 µM (according to the carrier-added samples) and analyzed. UPLC–MS/MS was performed using System 2 (55% isocratic elution for quantification of intact compound, or 25–75% gradient for nonradioactive metabolite analysis). […]

Compound	Effect of coincubation on metabolic profile / intact [18F]1 (in words) (HepG2 CYP1A2 [1])	Effect of coincubation on intact [18F]1 amount (in words) (HepG2 CYP2C19 [2]; testosterone 1–50 µM)	Testosterone consumed (HepG2 cells)	Defluorination (HepG2 CYP2C19 [3]; 1 h incubation)	Metabolic turnover / stability of radiotracer (in words) (HepG2 CYP2C19 [3]; HepG2 CYP2C19, up to 2 h)	Summarized percentage of metabolites (HepG2 CYP3A4)	Metabolic turnover / stability of radiotracer (in words) (HepG2 CYP1A2 [4])	Increase of intact tracer [18F]1 versus incubation without additional substances (HepG2 CYP2C19 [2])
C[C@]12CC[C@H]3[C@@H](CCC4=CC(=O)CC[C@@]43C)[C@@H]1CC[C@@H]2O [testosterone]	no change in the metabolic profile	slight increase in the amount of intact radiotracer	more than 50%	–	–	–	–	–
Cc1ccc(-c2cc(CC[18F])nn2-c2ccc(S(C)(=O)=O)cc2)cc1 [[^18F]3, 3-([^18F]fluoroethyl)-1-[4-(methylsulfonyl)phenyl]-5-(p-tolyl)-1H-pyrazole]	–	–	–	only noted during incubation with HepG2 CYP2C19	pronounced slower degradation	below 3%	pronounced slower degradation	–
CC(=O)[C@H]1CC[C@H]2[C@@H]3CCC4=CC(=O)CC[C@]4(C)[C@H]3CC[C@]12C [progesterone]	no change in the metabolic profile	–	–	–	–	–	–	twofold
